Article PMC2873402, “Discovery of High-Affinity Protein Binding Ligands – Backwards” (PLoS ONE, 2010)
Entries after “also recorded” stand apart in the source; their conditions may differ. Bridge positions count the residues as written; N and C are the ends. Ends that are not written are not given here. I, II: the chains in the order shown. * marks the point of attachment. StBu = CC(C)(C)S*

Tested on: 8,303 recombinant human proteins
Experiment: Protein array (ProtoArray) screen of synbodies
Type: binding
Settings: 200 nM biotin synbody, Alexa-555 streptavidin detection, background-subtracted fluorescence
Source text: To test this approach, a candidate synbody was constructed using two peptides, […] and […], referred to as peptides 1 and 2, respectively. The sequences of the first 17 aa of these peptides were generated using a random number generator and three constant positions on the C-terminus that served as a spacer between the linker scaffold and the active portion of each peptide. A divergent synthetic method was used in which peptide 1 was synthesized from C to N terminus from the α-amine of lysine and peptide 2 was synthesized from the ε-amine of lysine (Figure 2A, Materials and Methods S1, Figure S1). The synbody was tagged on the C-terminus with biotin and screened against a Life Technologies ProtoArray™. ProtoArrays are nitrocellulose coated slides onto which 8,303 recombinant human proteins have been spotted. After a 2-hour incubation, the array was washed and bound synbody was detected using fluorescently labeled streptavidin. […]
Synbodies were screened on an Invitrogen ProtoArray™ (Life Technologies, Carlsbad, CA, USA) detected with Alexa-555 labeled streptavidin (Life Technologies), and scanned using a Perkin Elmer ProScan Array HTP. The spots were analyzed using GenePix Pro (Molecular Devices, Sunnyvale, CA, USA) and data were processed using Genespring GX (Agilent Technologies, Santa Clara, CA, USA). […]

## I: AHKVVPQRQIRHAYNRYGSGKC(StBu)-NH2 / II: FRGWAHIFFGPHVIYRGGSG (amide I:21-II:C) [synbody]
  proteins bound on protein array: bound few proteins on the array; also recorded: bound several different proteins including PCCA, CASZ1, GRP58, NOB1, and AKT1
